According to patent EP4603105A1, “PHARMACEUTICAL COMPOSITION CONTAINING CYCLIC COMPOUND HAVING SELECTIVE KRAS INHIBITORY EFFECT AGAINST HRAS AND NRAS” (CHUGAI SEIYAKU KABUSHIKI KAISHA, priority 2022, dated 2024):
pIC50: −log10 of the molar value.

Tests used:
[1] = tested on: human lung cancer strain NCI-H441; assay type: cell-based
In short: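 Step one: dispense the test compound in serial DMSO dilutions. Step three: add the reagent and measure […].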

HRAS wild-type protein = HRAS wild-type protein (Homo sapiens, UniProt P01112); experiment: Binding to HRAS by surface plasmon resonance (SPR), KD and KD ratio to KRAS
Sequence of HRAS wild-type protein (P01112 whole entry): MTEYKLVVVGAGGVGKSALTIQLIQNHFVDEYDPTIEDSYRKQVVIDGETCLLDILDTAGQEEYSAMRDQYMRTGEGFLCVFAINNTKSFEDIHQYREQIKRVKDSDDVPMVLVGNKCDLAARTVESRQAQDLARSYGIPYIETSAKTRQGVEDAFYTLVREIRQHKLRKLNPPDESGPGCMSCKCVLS
In short: (§1)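 Captured GDP-RAS (~100–300 RU) was exposed to increasing compound concentrations, 75 s per step, in running buffer with 10 µM GDP, 10 mM MgCl2 and 4% DMSO at pH 7.4.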

[2] = target: GDP-bound NRAS wild-type protein (Homo sapiens, UniProt P01111); experiment: Binding to NRAS by surface plasmon resonance (SPR), KD and KD ratio to KRAS
Sequence of GDP-bound NRAS wild-type protein (P01111 whole entry): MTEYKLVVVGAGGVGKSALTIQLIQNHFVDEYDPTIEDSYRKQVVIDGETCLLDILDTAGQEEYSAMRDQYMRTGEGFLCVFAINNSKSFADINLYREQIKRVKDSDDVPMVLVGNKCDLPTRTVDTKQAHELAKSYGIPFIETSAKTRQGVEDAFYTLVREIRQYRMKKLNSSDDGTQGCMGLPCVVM
In short: as §1

[3] = ratio of the KD value with respect to HRAS wild-type protein to the KD value with respect to KRAS
[4] = ratio of the KD value with respect to GDP-bound NRAS wild-type protein to the KD value with respect to KRAS
[5] = ratio of KD value for HRAS wild-type protein to KD value for KRAS (SPR)
[6] = ratio of KD value for GDP-bound NRAS wild-type protein to KD value for KRAS (SPR)
[7] = ratio of KD for HRAS wild-type protein to KD for KRAS
[8] = ratio of KD for GDP-bound NRAS wild-type protein to KD for KRAS

Row | SMILES | pIC50 [1] | HRAS /KRAS (HRAS wild-type protein; [3]) | NRAS /KRAS [2, 4] | other results
1 | CC[C@H](C)[C@@H]1NC(=O)[C@H](CC)N(C)C(=O)C[C@@H](C(=O)N(C)C)N(CC)C(=O)[C@H](C2CCCC2)N(C)C(=O)C2(CCC2)NC(=O)[C@@H]2C[C@H](N3CCC(F)(F)CC3)CN2C(=O)[C@H](CCc2cc(F)c(C(F)(F)F)c(F)c2)NC(=O)CN(C)C(=O)[C@H](Cc2ccc(C(F)(F)F)cc2)N2CCCC[C@@H](C2=O)N(C)C(=O)CN(C)C1=O [PP0659] | 6.73 | B (a compound having 3 or more and less than 10 is denoted as B) | B (a compound having 3 or more and less than 10 is denoted as B) | –
2 | CCO[C@@H]1C[C@H]2C(=O)NC3(CCC3)C(=O)N(C)[C@@H](C3CCCC3)C(=O)N(C)[C@H](C(=O)N(C)CC)CC(=O)N(C)[C@H]3CCCCCc4ccc(cc4)C[C@@H](C(=O)N(C)CC(=O)N[C@@H](CCc4ccc(C(F)(F)F)c(OC)c4)C(=O)N2C1)N1CC/C=C\C[C@@H](C1=O)N(C)C(=O)CN(C)C(=O)[C@H]([C@@H](C)CC)NC3=O [PP2118] | 8.09 | B (a compound having 3 or more and less than 10 is denoted as B) | A (a compound having 10 or more and less than 20 is denoted as A) | –
3 | CCO[C@@H]1C[C@H]2C(=O)NC3(CCCC3)C(=O)N(C)[C@@H](C3CCCC3)C(=O)N(C)[C@H](C(=O)N3CCOCC3)CC(=O)N(C)[C@@H](CC(C)C)C(=O)N[C@@H]([C@@H](C)CC)C(=O)N(C)CC(=O)N(C)[C@H]3C[C@@H](C)CCN(C3=O)[C@@H](Cc3ccc(C(F)(F)F)cc3)C(=O)N(C)CC(=O)N[C@@H](CCc3cc(F)c(C(F)(F)F)c(F)c3)C(=O)N2C1 [PP1024] | 7.90 | – | – | HRAS /KRAS (HRAS wild-type protein; [7]): B (a compound having 3 or more and less than 10 is denoted as B); NRAS /KRAS [2, 8]: B (a compound having 3 or more and less than 10 is denoted as B)
4 | CCC[C@H]1C(=O)N[C@@H]([C@@H](C)CC)C(=O)N2CCC[C@H]2C(=O)N(C)[C@H]2C/C=C\CCN(C2=O)[C@@H](Cc2ccc(C(F)(F)F)cc2)C(=O)N(C)CC(=O)N[C@@H](CCc2cc(F)c(C(F)(F)F)c(F)c2)C(=O)N2C[C@H](OCC)C[C@H]2C(=O)N(C)C2(CCC2)C(=O)N(C)[C@@H](C2CCCC2)C(=O)N(C)[C@H](C(=O)N2CCCCC2)CC(=O)N1C [PP3114] | 7.83 | – | – | HRAS /KRAS (HRAS wild-type protein; [7]): A (a compound having 10 or more and less than 20 is denoted as A); NRAS /KRAS [2, 8]: AA (a compound having 20 or more is denoted as AA)
5 | CCCN(C)C(=O)[C@@H]1CC(=O)N(C)[C@@H](CC(F)F)C(=O)N[C@@H]([C@@H](C)CC)C(=O)N(C)CC(=O)N(C)[C@H]2C/C=C\CCN(C2=O)[C@@H](Cc2ccc(C(F)(F)F)cc2)C(=O)N(C)CC(=O)N[C@@H](CCc2cc(F)c(C(F)(F)F)c(F)c2)C(=O)N2CCC[C@H]2C(=O)NC2(CC(C)(C)C2)C(=O)N(C)[C@@H](C2CCCC2)C(=O)N1C [PP1721] | 8.00 | – | – | HRAS /KRAS (HRAS wild-type protein; [5]): A (a compound having 10 or more and less than 20 is denoted as A); NRAS /KRAS [2, 6]: A (a compound having 10 or more and less than 20 is denoted as A)
6 | CCC[C@H]1C(=O)N[C@@H]([C@@H](C)CC)C(=O)N(C)CC(=O)N(C)[C@H]2C/C=C\CCN(C2=O)[C@@H](Cc2ccc(C)cc2)C(=O)N(C)CC(=O)N[C@@H](CCc2ccc(Cl)c(C(F)(F)F)c2)C(=O)N2C[C@H](OCC)C[C@H]2C(=O)NC2(CC(C)(C)C2)C(=O)N(C)[C@@H](C(CC)CC)C(=O)N(C)[C@H](C(=O)N(C)C)CC(=O)N1C [PP2787] | 7.66 | – | – | HRAS /KRAS (HRAS wild-type protein; [7]): A (a compound having 10 or more and less than 20 is denoted as A); NRAS /KRAS [2, 8]: AA (a compound having 20 or more is denoted as AA)
7 | CCO[C@@H]1C[C@H]2C(=O)NC3(CC(C)(C)C3)C(=O)N(C)[C@@H](C3CCCC3)C(=O)N(C)[C@H](C(=O)N(C)CC)CC(=O)N(C)[C@@H](CC(C)C)C(=O)N[C@@H]([C@@H](C)OCC)C(=O)N(C)CC(=O)N(C)[C@H]3C/C=C\CCN(C3=O)[C@@H](Cc3ccc(C(F)(F)F)cc3)C(=O)N(C)CC(=O)N[C@@H](CCc3cc(F)c(C(F)(F)F)c(F)c3)C(=O)N2C1 [PP1919] | 8.20 | A (a compound having 10 or more and less than 20 is denoted as A) | A (a compound having 10 or more and less than 20 is denoted as A) | –
8 | CC[C@H](C)[C@@H]1NC(=O)[C@H](CC)N(C)C(=O)C[C@@H](C(=O)N(C)C)N(CC)C(=O)[C@H](C2CCCC2)N(C)C(=O)C2(CCC2)NC(=O)[C@@H]2CCCCN2C(=O)[C@H](CCc2cc(F)c(C(F)(F)F)c(F)c2)NC(=O)CN(C)C(=O)[C@H](Cc2ccc(C(F)(F)F)cc2)N2CCCC[C@@H](C2=O)N(C)C(=O)CN(C)C1=O [PP0661] | 7.25 | B (a compound having 3 or more and less than 10 is denoted as B) | C (A compound having a KD ratio of 0.1 or more and less than 3 is denoted as C) | –
9 | CC[C@H](C)[C@@H]1NC(=O)[C@H](CC(C)C)N(C)C(=O)C[C@@H](C(=O)N2CCOCC2)N(C)C(=O)[C@H](C2CCCC2)N(C)C(=O)C2(CCCC2)NC(=O)[C@@H]2CCCN2C(=O)[C@H](CCc2cc(F)c(C(F)(F)F)c(F)c2)NC(=O)CN(C)C(=O)[C@H](Cc2ccc(C(F)(F)F)cc2)N2CCCCC[C@@H](C2=O)N(C)C(=O)CN(C)C1=O [PP0490] | 7.30 | B (a compound having 3 or more and less than 10 is denoted as B) | B (a compound having 3 or more and less than 10 is denoted as B) | –

The remaining compounds from weak to strong by pIC50 [1], led by results:

Row | pIC50 [1] | SMILES | HRAS /KRAS (HRAS wild-type protein; [3]) | NRAS /KRAS [2, 4] | other results
10 | 6.58 | CC[C@H](C)[C@@H]1NC(=O)[C@H](C)N(C)C(=O)C[C@@H](C(=O)N2CCOCC2)N(C)C(=O)[C@H](C2CCCC2)N(C)C(=O)C2(CCCC2)NC(=O)[C@@H]2CCCN2C(=O)[C@H](CCc2cc(F)c(C(F)(F)F)c(F)c2)NC(=O)CN(C)C(=O)[C@H](Cc2ccc(C(F)(F)F)cc2)N2CCCCC[C@@H](C2=O)N(C)C(=O)CN(C)C1=O [PP0487] | B (a compound having 3 or more and less than 10 is denoted as B) | B (a compound having 3 or more and less than 10 is denoted as B) | –
11 | 6.97 | CC[C@H](C)[C@@H]1NC(=O)[C@H](CC)N(C)C(=O)C[C@@H](C(=O)N(C)C)N(C)C(=O)[C@H](C2CCCC2)N(C)C(=O)C2(CCC2)NC(=O)[C@@H]2CCCN2C(=O)[C@H](CCc2cc(C)c(Cl)c(C)c2)NC(=O)CN(C)C(=O)[C@H](Cc2ccc(C(F)(F)F)cc2)N2CC/C=C\C[C@@H](C2=O)N(C)C(=O)CN(C)C1=O [PP1822] | – | – | HRAS /KRAS (HRAS wild-type protein; [5]): B (a compound having 3 or more and less than 10 is denoted as B); NRAS /KRAS [2, 6]: A (a compound having 10 or more and less than 20 is denoted as A)
12 | 7.24 | CCO[C@@H]1C[C@H]2C(=O)NC3(CCC3)C(=O)N(C)[C@@H](C3CCCC3)C(=O)N(C)[C@H](C(=O)N(C)CCOC)CC(=O)N(C)[C@@H](C)C(=O)N[C@@H]([C@@H](C)CC)C(=O)N(C)CC(=O)N(C)[C@H]3C/C=C\CCN(C3=O)[C@@H](Cc3ccc(C(F)(F)F)cc3)C(=O)N(C)CC(=O)N[C@@H](CCc3cc(F)c(C(F)(F)F)c(F)c3)C(=O)N2C1 [PP1319] | – | – | HRAS /KRAS (HRAS wild-type protein; ratio of KD with respect to HRAS wild-type protein to KD with respect to KRAS): B (a compound having 3 or more and less than 10 is denoted as B); NRAS /KRAS ([2]; ratio of KD with respect to GDP-bound NRAS wild-type protein to KD with respect to KRAS): A (a compound having 10 or more and less than 20 is denoted as A)
13 | 8.35 | CC[C@H](C)[C@@H]1NC(=O)[C@@H]2CCCCCCc3ccc(cc3)C[C@@H](C(=O)N(C)CC(=O)N[C@@H](CCc3ccc(C(F)(F)F)c(OC)c3)C(=O)N3C[C@H](OC4CCC4)C[C@H]3C(=O)NC3(CC(C)(C)C3)C(=O)N(C)[C@@H](C3CCCC3)C(=O)N(C)[C@H](C(=O)N(C)C)CC(=O)N2C)N2CC/C=C\C[C@@H](C2=O)N(C)C(=O)CN(C)C1=O [PP3068] | – | – | HRAS /KRAS (HRAS wild-type protein; [7]): B (a compound having 3 or more and less than 10 is denoted as B); NRAS /KRAS [2, 8]: A (a compound having 10 or more and less than 20 is denoted as A)
14 | 8.42 | CCO[C@@H]1C[C@H]2C(=O)NC3(CCC3)C(=O)N(C)[C@@H](C3CCCC3)C(=O)N(C)[C@H](C(=O)N(C)C)CC(=O)N(C)[C@@H](CC3CC3)C(=O)N[C@@H]([C@@H](C)CC)C(=O)N(C)CC(=O)N(C)[C@H]3CCCCN(C3=O)[C@@H](Cc3ccc(C(F)(F)F)cc3)C(=O)N(C)CC(=O)N[C@@H](CCc3cc(F)c(C(F)(F)F)c(F)c3)C(=O)N2C1 [PP0697] | C (A compound having a KD ratio of 0.1 or more and less than 3 is denoted as C) | C (A compound having a KD ratio of 0.1 or more and less than 3 is denoted as C) | –
15 | 8.72 | CCO[C@@H]1C[C@H]2C(=O)NC3(CC(C)(C)C3)C(=O)N(C)[C@@H](C3CCCC3)C(=O)N(C)[C@H](C(=O)N(C)CC)CC(=O)N(C)[C@@H](CC)C(=O)N[C@@H]([C@@H](C)CC)C(=O)N(C)CC(=O)N(C)[C@H]3C/C=C\CCN(C3=O)[C@@H](Cc3ccc(C)cc3)C(=O)N(C)CC(=O)N[C@@H](CCc3cc(F)c(C(F)(F)F)c(F)c3)C(=O)N2C1 [PP1886] | – | – | HRAS /KRAS (HRAS wild-type protein; [5]): B (a compound having 3 or more and less than 10 is denoted as B); NRAS /KRAS [2, 6]: A (a compound having 10 or more and less than 20 is denoted as A)
16 | 8.72 | CCO[C@@H]1C[C@H]2C(=O)NC3(CC(C)(C)C3)C(=O)N(C)[C@@H](C3CCCC3)C(=O)N(C)[C@H](C(=O)N(C)C)CC(=O)N(C)[C@@H](CC)C(=O)N[C@@H]([C@@H](C)CC)C(=O)N(C)CC(=O)N(C)[C@H]3C/C=C\CCN(C3=O)[C@@H](Cc3ccc(C(F)(F)F)cc3)C(=O)N(C)CC(=O)N[C@@H](CCc3ccc(C(F)(F)F)c(Cl)c3)C(=O)N2C1 [PP1746] | – | – | HRAS /KRAS (HRAS wild-type protein; [5]): A (a compound having 10 or more and less than 20 is denoted as A); NRAS /KRAS [2, 6]: A (a compound having 10 or more and less than 20 is denoted as A)
